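Protocol summary: plate cells (96-well), add compound at 5 concentrations, incubate 48 h, interpolate endpoints linearly. At the TGI there is no net growth.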
What was measured:
Test in all cases: DTP human tumour cell line panel, 48 h
[1] = test system: SK-OV-3 ovarian
[2] = test system: SNB-78 CNS
[3] = test system: RXF 393 renal
[4] = test system: HCC-2998 colon
[5] = test system: SR leukemia
[6] = test system: OVCAR-5 ovarian
[7] = test system: SF-268 CNS
[8] = test system: SNB-19 CNS
[9] = test system: IGROV1 ovarian
[10] = test system: SK-MEL-5 melanoma
[11] = test system: NCI-H460 lung
[12] = test system: SK-MEL-28 melanoma
[13] = test system: HCT-15 colon
[14] = test system: DLD-1 colon
[15] = test system: LXFL 529 NSCLC
[16] = test system: HT29 colon
[17] = test system: UACC-257 melanoma
[18] = test system: HOP-62 NSCLC
[19] = test system: A498 renal
[20] = test system: CCRF-CEM leukemia
[21] = test system: EKVX NSCLC
[22] = test system: UACC-62 melanoma
[23] = test system: HL-60(TB) leukemia
[24] = test system: SF-295 CNS
[25] = test system: KM12 colon
[26] = test system: M14 melanoma
[27] = test system: DMS 114 small cell lung
[28] = test system: SW-620 colon
[29] = test system: XF 498 CNS
[30] = test system: OVCAR-8 ovarian
[31] = test system: SN12C renal
[32] = test system: NCI-H522 lung
[33] = test system: RPMI-8226 leukemia
[34] = test system: LOX IMVI melanoma
[35] = test system: OVCAR-4 ovarian
[36] = test system: SF-539 CNS
[37] = test system: TK-10 renal
[38] = test system: HOP-18 NSCLC
[39] = test system: SNB-75 CNS
[40] = test system: 786-0 renal
[41] = test system: KM20L2 colon
[42] = test system: M19-MEL melanoma
[43] = test system: SK-MEL-2 melanoma
[44] = test system: K-562 leukemia
[45] = test system: OVCAR-3 ovarian
[46] = test system: DMS 273 small cell lung
[47] = test system: HCT-116 colon
[48] = test system: NCI-H226 lung
[49] = test system: A549 NSCLC
[50] = test system: ACHN renal
[51] = test system: CAKI-1 renal
[52] = test system: UO-31 renal
[53] = test system: U251 CNS
[54] = test system: MALME-3M melanoma
[55] = test system: COLO 205 colon
[56] = test system: MOLT-4 leukemia
[57] = test system: HOP-92 NSCLC
[58] = test system: NCI-H23 lung

Measured: TGI

CCN(CC)CC(C(C)=O)C(c1ccccc1)c1c(O)c2ccccc2oc1=O (configuration not stated)
> 100 µM: [1] | [2] | [3] | [4] | [5] | [6] | [7] | [8] | [9] | [10] | [11] | [12] | [13] | [14] | [15] | [16] | [17] | [18] | [19] | [20] | [21] | [22] | [23] | [24] | [25] | [26] | [27] | [28] | [29] | [30] | [31] | [32] | [33] | [34] | [35] | [36] | [37] | [38] | [39] | [40] | [41] | [42] | [43] | [44] | [45] | [46] | [47] | [48] | [49] | [50] | [51] | [52] | [53] | [54] | [55] | [56]

COc1cc(O)c2c(c1C)C(C)(O)c1c(C)coc1C2=O (configuration not stated)
> 100 µM: [1] | [2] | [3] | [5] | [6] | [8] | [9] | [11] | [12] | [57] | [16] | [17] | [18] | [19] | [21] | [22] | [23] | [24] | [25] | [26] | [27] | [30] | [37] | [58] | [42] | [47] | [48] | [49] | [50] | [52] | [53]

— PubChem BioAssay (NCI)
